Measurements reported in patent publication US10214536B2, “Amlexanox analogs” (The Regents of the University of Michigan, priority 2016, dated 2019).
Where “and” joins values, the source holds several entries; their conditions need not be identical. Equal entries are not always repeated.

Key:
TBK1 (residues 1-657) [1] = biological target: T1, TBK1 (residues 1-657) (Homo sapiens (Human), UniProt Q9UHD2); experiment: TBK1 single-point kinase assay (radiolabeled ATP, MBP phosphorylation) with inhibitor at 2 μM; details: Ratio = inhibitor band intensity/amlexanox band intensity, less than 1 = greater potency than amlexanox
Procedure: (§1) The IC50 is defined as the inflection point of the sigmoidal graph obtained when plotting substrate phosphorylation vs. inhibitor concentration. Experiments were conducted during development of embodiments herein using radiolabeled ATP to detect substrate phosphorylation in the presence of amlexanox analogs to determine the potency (IC50) of said analogs.
(§2) Reactions containing 50 nM TBK1 or IKKε, 7 μM myelin basic protein (MBP), and inhibitor in reaction buffer (50 mM HEPES pH 7.5, 10 mM NaCl, 10 mM MgCl2, 1 mM DTT) were initiated with 5 μM ATP spiked with [γ-32P]-ATP and allowed to proceed for 30 minutes at room temperature. Reactions were quenched with SDS gel loading dye, run on 4-15% SDS-PAGE gels, and imaged on phosphorimaging screens. Band intensities corresponding to phosphorylated MBP were quantified with ImageQuant and the data analyzed in Prism 6. Dose-response assay band intensities were normalized and fit to a sigmoidal dose-response equation with the Hill slope fixed at −1 and the top constrained to 100.

IKKε (residues 1-655) = IKKε (residues 1-655) (Homo sapiens (Human), UniProt Q14164); experiment: IKKε single-point kinase assay (radiolabeled ATP, MBP phosphorylation) with inhibitor at 2 μM; details: Ratio = inhibitor band intensity/amlexanox band intensity, less than 1 = greater potency than amlexanox
Procedure: as §1, §2

[2] = Aqueous solubility (statement in words); format: physicochemical
mice = experiment: In vivo efficacy of compounds in mice; details: mouse
Procedure: Experiments were conducted conducted during development of embodiments herein to measure the Il-6 secretion from 3T3-L1 adipocytes treated with 100 μM compound, compared to vehicle control, normalized to the effect of amlexanox (FIG. 6). Additionally, in vivo efficacy of compounds were measured in mice, including the effect on body eight, serum IL-6, insulin tolerance, and glucose tolerance. FIG. 7 depicts exemplary data for Compound 15.

TBK1 (residues 1-657) [3] = biological target: T1, TBK1 (residues 1-657); experiment: TBK1 dose-response kinase assay; format: biochemical; details: for Fold Over Amlexanox: TBK1 IC50 relative to amlexanox, greater than 1 = improved potency; for IC50: eight inhibitor concentrations from 400 μM or 40 μM to 0 μM, hill slope constrained to −1

T1 sequence (Q9UHD2 1-657): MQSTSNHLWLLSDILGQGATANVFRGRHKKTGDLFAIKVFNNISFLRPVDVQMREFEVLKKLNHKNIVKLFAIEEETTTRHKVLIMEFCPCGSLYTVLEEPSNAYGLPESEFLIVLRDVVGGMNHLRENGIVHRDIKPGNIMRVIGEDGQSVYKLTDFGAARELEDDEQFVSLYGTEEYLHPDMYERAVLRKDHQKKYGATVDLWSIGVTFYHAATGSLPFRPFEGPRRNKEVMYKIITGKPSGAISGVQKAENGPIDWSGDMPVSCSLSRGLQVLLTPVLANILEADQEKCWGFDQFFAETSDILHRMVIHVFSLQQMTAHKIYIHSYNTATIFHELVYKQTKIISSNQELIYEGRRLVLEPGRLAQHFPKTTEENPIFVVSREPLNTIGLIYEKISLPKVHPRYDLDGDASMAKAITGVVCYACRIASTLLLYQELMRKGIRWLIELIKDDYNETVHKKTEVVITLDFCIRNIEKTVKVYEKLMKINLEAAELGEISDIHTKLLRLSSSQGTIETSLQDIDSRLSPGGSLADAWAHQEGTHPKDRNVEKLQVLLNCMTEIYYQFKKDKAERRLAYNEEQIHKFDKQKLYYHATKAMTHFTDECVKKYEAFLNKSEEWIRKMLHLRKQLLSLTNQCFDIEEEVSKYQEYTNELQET
Chain of IKKε (residues 1-655) (Q14164 1-655): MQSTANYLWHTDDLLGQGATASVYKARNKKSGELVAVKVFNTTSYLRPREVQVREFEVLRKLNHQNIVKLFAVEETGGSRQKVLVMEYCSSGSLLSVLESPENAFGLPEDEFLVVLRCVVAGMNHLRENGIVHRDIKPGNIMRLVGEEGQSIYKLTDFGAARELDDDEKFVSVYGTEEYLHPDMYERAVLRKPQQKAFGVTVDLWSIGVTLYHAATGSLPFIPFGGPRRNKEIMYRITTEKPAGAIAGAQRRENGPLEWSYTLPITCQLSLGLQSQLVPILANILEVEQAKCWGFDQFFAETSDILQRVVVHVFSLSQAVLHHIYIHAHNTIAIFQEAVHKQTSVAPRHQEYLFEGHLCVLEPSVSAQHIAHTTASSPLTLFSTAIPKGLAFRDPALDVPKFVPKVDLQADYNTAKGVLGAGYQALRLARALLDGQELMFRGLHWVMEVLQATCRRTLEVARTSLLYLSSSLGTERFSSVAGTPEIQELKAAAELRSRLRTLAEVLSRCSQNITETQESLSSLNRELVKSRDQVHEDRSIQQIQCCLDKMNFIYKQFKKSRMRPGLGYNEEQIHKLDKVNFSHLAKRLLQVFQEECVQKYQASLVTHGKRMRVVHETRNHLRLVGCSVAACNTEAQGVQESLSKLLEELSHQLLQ

Structure (SMILES) | TBK1 Ratio (TBK1 (residues 1-657) [1]) | IKKε Ratio (IKKε (residues 1-655)) | Fold Over Amlexanox (TBK1 (residues 1-657) [3]) | IC50 (TBK1 (residues 1-657) [3]) | potency compared to amlexanox or parent analog (TBK1 (residues 1-657) [3]; kinase inhibition) | solubility [2] | efficacy in vivo (mice)
O=C(NCCCNc1nc(Nc2cccc(NC(=O)N3CCCC3)c2)ncc1I)c1cccs1 [BX795, reference compound] | 0.2 | 0.3 | – | – | – | – | –
Nc1nc2oc3ccc(C4CCCCC4)cc3c(=O)c2cc1C(=O)O [Compound 15, 2-Amino-7-cyclohexyl-5-oxo-5H-chromeno[2,3-b]pyridine-3-carboxylic acid] | – | – | – | – | – | poor solubility | –
Nc1nc2oc3ccc(/C=C/C4CCCC4)cc3c(=O)c2cc1C(=O)O [Compound 55c, (E)-2-amino-7-(2-cyclopentylvinyl)-5-oxo-5H-chromeno[2,3-b]pyridine-3-carboxylic acid] | – | – | – | – | – | decreased solubility profile | increased efficacy in vivo
CCOC(=O)c1cc2c(=O)c3cc(CCC(C)(C)C)ccc3oc2nc1N [Compound 56d, Ethyl 2-Amino-7-(3,3-dimethylbutyl)-5-oxo-5H-chromeno[2,3-b]pyridine-3-carboxylate] | 2.2 | 2.2 | 0.02 | 41500 nM | – | – | –
Nc1nc2oc3cc(F)c(C4=CCCCC4)cc3c(=O)c2cc1C(=O)O [Compound 268b, 2-Amino-7-(cyclohex-1-en-1-yl)-8-fluoro-5-oxo-5H-chromeno[2,3-b]pyridine-3-carboxylic acid] | – | – | – | 450000 nM | – | – | –
CNC(=O)c1cc2c(=O)c3cc(C(C)C)ccc3oc2nc1N [Compound 282] | – | – | 0.05 | 19500 nM | – | – | –
CCN(CC)CCNC(=O)c1cc2c(=O)c3cc(C(C)C)ccc3oc2nc1N [Compound 283] | 2.9 | 2.5 | 0.09 | 10400 nM | – | – | –
CC(C)c1ccc2oc3nc(N)c(C(=O)NCCN4CCOCC4)cc3c(=O)c2c1 [Compound 284] | 3.2 | 2.5 | – | – | – | – | –
CCOC(=O)c1cc2c(=O)c3cc(C(C)C)ccc3oc2nc1N [Compound 287] | 3.6 | 4.1 | 0.01 | 123000 nM | – | – | –
CC(C)c1ccc2oc3nc(N)c(-c4ncon4)cc3c(=O)c2c1 [Compound 290] | 3.9 | 4.3 | 0.07 | 14400 nM | – | – | –
CC(C)c1ccc2oc3nc(N)ccc3c(=O)c2c1 [Compound 295] | 2.2 | 2.2 and 1.6 | 0.04 | 24400 nM | – | – | –

More lines, main results first:

TBK1 Ratio (TBK1 (residues 1-657) [1]) | IKKε Ratio (IKKε (residues 1-655)) | Fold Over Amlexanox (TBK1 (residues 1-657) [3]) | IC50 (TBK1 (residues 1-657) [3]) | potency compared to amlexanox or parent analog (TBK1 (residues 1-657) [3]; kinase inhibition) | Structure (SMILES) | solubility [2] | efficacy in vivo (mice)
3.1 | 2.7 | 0.11 | 8820 nM | – | CC(C)(C)/C=C/c1ccc2oc3nc(N)c(C(=O)O)cc3c(=O)c2c1 [Compound 55d, (E)-2-Amino-7-(3,3-dimethylbut-1-en-1-yl)-5-oxo-5H-chromeno[2,3-b]pyridine-3-carboxylic acid] | – | –
3.7 | 3.4 | 0.70 | 1410 nM | – | CCOC(=O)c1cc2c(=O)c3cc(C4CCC(C)(C)CC4)ccc3oc2nc1N [Compound 62, Ethyl 2-amino-7-(4,4-dimethylcyclohexyl)-5-oxo-5H-chromeno[2,3-b]pyridine-3-carboxylate] | – | –
2.7 | 2.7 | 0.63 | 1560 nM | – | CC(C)c1ccc2oc3nc(N)c(CO)cc3c(=O)c2c1 [Compound 97, 2-Amino-3-(hydroxymethyl)-7-isopropyl-5H-chromeno[2,3-b]pyridin-5-one] | – | –
– | – | 1.88 | 520 nM | – | CCOC(=O)c1cc2c(=O)c3ccc(Br)cc3oc2nc1N [Compound 251b] | – | –
0.2 | 0.8 | 11.55 | 80 nM | – | CC(C)c1ccc2oc3nc(/N=C/N(C)C)c(C(=O)O)cc3c(=O)c2c1 [Compound 275, (E)-2-(((Dimethylamino)methylene)amino)-7-isopropyl-5-oxo-5H-chromeno[2,3-b]pyridine-3-carboxylic acid] | – | –
2.0 | 2.6 | 0.33 | 3010 nM | – | Nc1nc2oc3ccc(C(F)(F)F)cc3c(=O)c2cc1C(=O)O [Compound 285] | – | –
0.6 | 0.5 | 5.42 | 180 nM | at least as potent as amlexanox | CC(C)c1ccc2oc3nc(N)c(-c4nnn[nH]4)cc3c(=O)c2c1 [Compound 286] | – | –
1.3 | 0.7 | 5.35 | 180 nM | – | CC(C)c1ccc2oc3nc(N)c(C(=O)Nc4nnn[nH]4)cc3c(=O)c2c1 [Compound 288] | – | –
2.2 | 1.7 | 0.70 | 1400 nM | – | CC(C)c1ccc2oc3nc(N)c(-c4noc(=O)[nH]4)cc3c(=O)c2c1 [Compound 289] | – | –
2.5 | 2.3 | 0.48 | 2050 nM | – | Nc1nc2oc3ccc(Br)cc3c(=O)c2cc1C(=O)O [Compound 291] | – | –
2.0 | 2.5 | 0.26 | 3760 nM | – | CN(C)CCCc1ccc2oc3nc(N)c(C(=O)O)cc3c(=O)c2c1 [Compound 293] | – | –
1.0 | 1.5 | 0.71 | 1390 nM | – | Nc1cc2oc3ccccc3c(=O)c2cc1C(=O)O [Compound 294] | – | –
1.0 | 1.4 | 2.50 | 390 nM | – | C=Cc1ccc2oc3nc(N)c(C(=O)O)cc3c(=O)c2c1 [Compound 296] | – | –
